Laboratory results published in US20100160454A1, “ANTIMICROBIAL AGENTS, COMPOSITIONS AND PRODUCTS CONTAINING THE SAME, AND METHODS OF USING THE COMPOSITIONS AND PRODUCTS” (Eastman Chemical Company, priority 2008, published 2010).

Key:
Assay in all cases: Challenge testing against pathogenic fungi, growth rating in broth tubes
Type in all cases: cell-based
Set-up in all cases: key: 0: No visible growth; 1: Some growth in tube; 2: Moderate growth in tube; 3: Good growth in tube; 4: Extreme growth in tube
[1] = system: Malassezia furfur (ATCC 96809); conditions: Malassezia furfur
Description: (§1) Both Microsporum canis and Trichophyton rubrum were grown on Sabouraud dextrose broth, while Malassezia fufur was grown in Sabouraud dextrose broth supplemented with 2% (v/v) of olive oil and 0.2% (v/v) of Tween™ 80; incubation was at 22°±2° C. under continuous agitation by stirring for 10 days. The organisms were grown to a density of between 1.0×10^3 to 1.0×10^4 cfu/g. The actual inoculation cell density of these challenges were determined by diluting in sterile buffer water and (spread-plate method) plating for enumeration.
(§2) Challenge organisms were used to inoculate tubes of 1,4-CHDM-D90 test concentrations prepared in Sabouraud dextrose broth (or Sabouraud dextrose broth supplemented with olive oil-Tween™ 80 with M. furfur). The inoculations were in the amount of 1.5 mL aliquots of each culture with static incubation at 22±2° C. Subcultures were made at 3-, 14- and 30-day increments. All challenges were conducted in triplicate. In the case of M. canis, the growth response was assessed by the visual presence/absence of growth in the tubes; in the case of T. rubrum, a respiratory (redox) dye (0.2% w/v aqueous INT solution: 2-[4-iodophenyl)-3-4-nitrophenyl]-5-phenyl tetrazolium chloride) was added to the tubes, turning red if the organism was viable; and, finally, in the case of M. furfur, the growth response was assessed based upon pellicle formation in the tubes at the meniscus. The test formulations and challenge test results, as well as 30-day MICs (Minimum Inhibitory Concentration), are in Tables 7-9 for the three organisms using the following growth rating system:
(§3) • 0: No visible growth • 1: Some growth in tube • 2: Moderate growth in tube • 3: Good growth in tube • 4: Extreme growth in tube

[2] = system: Trichophyton rubrum (ATCC 10218); conditions: Trichophyton rubrum
Description: as §1, §2, §3

[3] = system: Microsporum canis (ATTC 9084); conditions: Microsporum canis
Description: as §1, §2, §3

[4] = test concentration 0.5%, 3 days
[5] = test concentration 0.5%, 14 days
[6] = test concentration 0.5%, 30 days
[7] = test concentration 1.25%, 3 days
[8] = test concentration 1.25%, 14 days
[9] = test concentration 1.25%, 30 days
[10] = test concentration 2.5%, 3 days
[11] = test concentration 2.5%, 14 days
[12] = test concentration 2.5%, 30 days

## OCC1CCC(CO)CC1 (stereo not drawn) [1,4-CHDM-D90, 1,4-cyclohexanedimethanol]
[1]; [4]
  Growth Rating: 0
[1]; [5]
  Growth Rating: 1
[1]; [6]
  Growth Rating: 2
[1]; [7]
  Growth Rating: 0/0/0
[1]; [8]
  Growth Rating: 0/0/0
[1]; [9]
  Growth Rating: 0/0/0
[1]; [10]
  Growth Rating: 0/0/0
[1]; [11]
  Growth Rating: 0/0/0
[1]; [12]
  Growth Rating: 0/0/0
[1]; test concentration 5%, 3 days
  Growth Rating: 0/0/0
[1]; test concentration 5%, 14 days
  Growth Rating: 0/0/0
[1]; test concentration 5%, 30 days
  Growth Rating: 0/0/0
[2]; [4]
  Growth Rating: 1/1/1
[2]; [5]
  Growth Rating: 1/1/1
[2]; [6]
  Growth Rating: 1/1/1
[2]; [7]
  Growth Rating: 0/0/0
[2]; [8]
  Growth Rating: 0/0/0
[2]; [9]
  Growth Rating: 0/0/0
[2]; [10]
  Growth Rating: 0/0/0
[2]; [11]
  Growth Rating: 0/0/0
[2]; [12]
  Growth Rating: 0/0/0
[2]; test concentration 5%, 3 days
  Growth Rating: 1
[2]; test concentration 5%, 14 days
  Growth Rating: 0
[2]; test concentration 5%, 30 days
  Growth Rating: 0
[3]; [4]
  Growth Rating: 2
[3]; [5]
  Growth Rating: 1
[3]; [6]
  Growth Rating: 1
[3]; [7]
  Growth Rating: 2
[3]; [8]
  Growth Rating: 1
[3]; [9]
  Growth Rating: 1
[3]; [10]
  Growth Rating: 2
[3]; [11]
  Growth Rating: 0
[3]; [12]
  Growth Rating: 0
[3]; test concentration 5%, 3 days
  Growth Rating: 0/0/0
[3]; test concentration 5%, 14 days
  Growth Rating: 0/0/0
[3]; test concentration 5%, 30 days
  Growth Rating: 0/0/0
